The text below walks through data of patent US5759836A, “Osteoarthritis-associated inducable isoform of nitric oxide synthetase” (priority 1995, dated 1998).

Entries after “also recorded” stand apart in the source; their conditions may differ.

One assay deals with murine iNOS. Description: Sensitivity of murine iNOS to PDTC.
In assay [1] the test system is iNOS. In words: Nitrite accumulation in LPS-stimulated RAW 264.7 murine macrophages (Griess method). The format is cell-based. The note with it: Mus musculus, RAW264.7; 30 μM; read-out: block of nitrite accumulation. Here is the method: Effects of NSAIDs on Nitrite Accumulation. […] The expression and activity of iNOS were monitored by estimation of the stable end-product: nitrites.
concentrations of NSAIDs for 2 h followed by addition of 100 ng/ml of LPS
After 16-18 h of incubation, the medium was used to estimate the
accumulation of nitrite by the Greiss method (Green et al., Anal Biochem.
The specific activity of iNOS was determined in cellfre
extracts at a given time period as described. The nitrite and specific
activity data are representative of mean ± SD value, as determined by
student t test, for 10 and 4 independent experiments, respectively. The p
values described are compared with LPSstimulated cells. […]
For orientation: Nitrite, measured by Griess reagent, commonly stands in for NO production.

For assay [2], the system named is OA-NOS. Description: Nitrite release by OA-affected articular cartilage, ex vivo organ culture. The format is cell-based, human.
Assay [3] relates to human iNOS. Description: Sensitivity of human iNOS to PDTC.
Assay [4] has as its system OA-NOS. In words: Sensitivity of OA-NOS to agents (Table 3 comparison).
Another assay concerns NF-κB. The note with it: 30 μM; cited from earlier work.
In assay [5] the test system is iNOS. Description: iNOS expression in stimulated rat chondrosarcomas. In kind it is cell-based. Here is the method: NSAIDs were tested in: (FIG. 5A) rat chondrosarcomas stimulated with LPS, and (FIG. 5B) unstimulated OA cartilage (n=3).
For the next assay, the system named is rabbit chondrocytes. Particulars: cited from earlier work.
The conditions of assay [6]: cited from earlier work.
Another assay has as its system calmodulin. In words: Calmodulin binding of NOS isoforms. Here is the method: Extraction of Human Chondrocyte NOS and Western Blotting. Slices from articular cartilage affected by OA were frozen at -70° C., milled to fine particulate in liquid nitrogen, and sequentially extracted (10 ml/gram wet weight tissue) with neutral salt buffer (Tris HCl:saline) containing protease inhibitors (1 mM PMSF, 2 mM N-ethylmaleimide, and 0.025 mg/ml leupeptin), followed with the same buffer containing 10 mM EDTA, with 4 M guanidine-HCl, and then with a detergent buffer containing 10% SDS with protease inhibitors. Samples were run on 9% or 4-15% gradient SDS-PAGE gels under non-reducing conditions, transferred to nitrocellulose, and Western blotted with α-iNOS/α-ncNOS or α-calmodulin mAb (Cho et al., J. Exp. Med. 176:599-604, 1992). Bound antibody was detected by a secondary antibody conjugated with horseradish peroxidase, and developed using the ECL Western blotting system (Amersham, Arlington Heights, Ill.) on Kodak Xomatic X-ray film.

For assay [7] the following is noted: systemic, rodent; cited from earlier work.
Assay [8] has as its system iNOS. Particulars: cited from earlier work.
Assay [9] deals with human iNOS. The note with it: crude lysates; cited from earlier work.
Another assay concerns human chondrocyte NOS. Particulars: cited from earlier work.

For the compound `S=C(S)N1CCCC1` [PDTC, pyrrolidine dithiocarbamate], the “effect on murine iNOS” value in the assay on murine iNOS is reported as “blocks murine iNOS”. For the same compound, the inhibition at 30 µM in the assay on iNOS [1] is over 90%; with OA-NOS [2] (Homo sapiens, cycloheximide 35 μM or PDTC 30 μM, 24 h, cytokine/endotoxin-induced and control cartilage, read-out: block of nitrite accumulation), over 90%. Moreover, in the assay on human iNOS [3], the “effect on human iNOS” value is recorded as “not human iNOS”. For the same compound, in the assay on OA-NOS [4], the “sensitivity of OA-NOS” value is given as “blocked; also recorded: shows sensitivity”. The “inhibition of NF-κB as component of iNOS transcription/expression” value with NF-κB is “inhibited”.

Consider `CN=C(N)NCCC[C@H](N)C(=O)O` [L-NMMA, N^G -monomethyl-L-arginine acetate], for which, in the assay with iNOS [5] (72 h, added 1 h prior to cytokines), the “inhibition of iNOS expression in rat chondrosarcomas” value is on record as ~ 65%. The “effect on iNOS in rat chondrosarcomas” value with iNOS [5] (LPS/cytokine-stimulated, L-NMMA 500 μM, indomethacin 20 μM) is “significant inhibition of iNOS”. Moreover, in the assay with rabbit chondrocytes, the “proteoglycan synthesis” value was “restored proteoglycan synthesis”. Further, in the assay with OA-NOS [2] (unstimulated OA cartilage, L-NMMA 500 μM, indomethacin 5 μM), the “effect on nitrite accumulation / NOS expression in OA cartilage” value was “inhibited”. The “sensitivity of OA-NOS” value in the assay on OA-NOS [4] was “blocked; also recorded: shows sensitivity”. Further, the “paw swelling” value in assay [6] (partial inhibition of NOS) is given as “sufficient to reduce paw swelling”. In addition, the “NO biosynthesis, paw swelling and histopathological changes in ankle joints” value in [6] (rat adjuvant arthritis) is listed as “blocked (in a dose-dependent manner)”.

On to “human hepatocyte iNOS: obtained from NIH 3T3 fibroblasts transduced with a retrovirus carrying the human hepatocyte iNOS cDNA”, for which the Calmodulin binding result with calmodulin was “complexed with calmodulin”.

As for TGF-β1: cytokine TGF-β1, the “arthritis morbidity / protection” value in assay [7] is listed as “significant degree of protection”. Moreover, in the assay on iNOS [8], the “iNOS expression in macrophages” value is recorded as “suppresses iNOS expression”.

On to `O=C(O)CN(CCOCCOCCN(CC(=O)O)CC(=O)O)CC(=O)O` [EGTA], for which, in the assay with human iNOS [9], the “human iNOS activity” value is given as “markedly reduces”. The “enzyme activity in cell-free extracts” value in the assay on human chondrocyte NOS is on record as “no effect on enzyme activity”.
